The values below come from PMC10673511, “Design, Synthesis and Bioactivity Evaluation of Heterocycle-Containing Mono- and Bisphosphonic Acid Compounds” (Molecules, 2023).

Molecules are shown by their SMILES. Values after ≈ are worked out from the molar mass of the structure shown. Where two headings read alike, the source gives them in different places. Bounds are passed on as bounds.

One data set relates to Echinochloa crus-galli. Nature of the data set: Pre-emergence herbicidal inhibition assay, Petri dish test, EC. Format: in vivo. As to conditions: for EC50: Echinochloa crus-galli, 168 h; for Relative activity ratio (EC root) / Relative activity ratio (EC stalk): relative to FOS. As for the experimental part:
(§1) The pre-emergence activity of the compounds against monocot Echinochloa crus-galli (EC) and dicot Brassica napus L. (BN) was evaluated using the standard Petri dish test. The compounds were dissolved in DMF, emulsified with Tween-80 and diluted with water to form stock solutions, each of which was further diluted to a gradient of 100, 50, 25, 10 and 1 mg/L for test. The test solutions were added to Petri dishes lined with a filter paper, on which 10 seeds of EC and BN were placed. After cultured in an intelligent climate chamber with a humidity of 65% at 26 °C for 7 days, the corresponding EC50 values were calculated.

In data set [1] the target is recombinant E. coli DXR (EcDXR) (Escherichia coli, UniProt P45568). In words: biochemical. As to conditions: read-out: InR (%) on DXR enzyme.
recombinant E. coli DXR (EcDXR), sequence (P45568 whole entry): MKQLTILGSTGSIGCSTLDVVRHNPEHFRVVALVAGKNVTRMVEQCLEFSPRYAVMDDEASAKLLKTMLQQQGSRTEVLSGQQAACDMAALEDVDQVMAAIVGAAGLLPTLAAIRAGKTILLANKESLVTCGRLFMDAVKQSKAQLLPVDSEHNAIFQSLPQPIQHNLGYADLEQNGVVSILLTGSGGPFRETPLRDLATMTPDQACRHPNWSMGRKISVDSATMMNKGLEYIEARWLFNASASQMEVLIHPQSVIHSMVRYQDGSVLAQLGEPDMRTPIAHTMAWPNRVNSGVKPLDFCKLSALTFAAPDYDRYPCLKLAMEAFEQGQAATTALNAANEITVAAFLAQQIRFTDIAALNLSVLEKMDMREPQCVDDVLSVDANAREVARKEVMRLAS
The subject of a further data set is Arabidopsis thaliana. Nature of the data set: Arabidopsis growth inhibition assay (24-well plates, green channel pixel value). The settings on record: Arabidopsis thaliana, 240 h; for EC50: read-out: EC50 against Arabidopsis growth; for pest or weed control at 100 µg/mL: read-out: InR (%) against Arabidopsis.
The next data set relates to Brassica napus L. In words: Pre-emergence herbicidal inhibition assay, Petri dish test, BN. As to conditions: for EC50: Brassica napus, 168 h; for Relative activity ratio (BN root) / Relative activity ratio (BN stalk): relative to FOS. Format: in vivo. As for the experimental part:
as §1

Where [2] appears, read: root, 7 days, read-out: EC50 EC Root.
Where [3] appears, read: stalk, 7 days, read-out: EC50 EC Stalk.
[4] abbreviates: root, 7 days, read-out: EC50 BN Root.
The mark [5] stands for this setting: stalk, 7 days, read-out: EC50 BN Stalk.

Broadly, the EC50 is the concentration that produces a half-maximal response. Usually melting point stands for the temperature of the solid-liquid transition.

Compound `CCc1noc(CC)c1CC(P(=O)(O)O)P(=O)(O)O` [Compound 13h] returned a melting point of over 250 °C. Further, the concentration for a half-maximal effect (EC50) with Echinochloa crus-galli (setting [2]) is 48 µg/mL (≈ 153 µM). In the data set on Echinochloa crus-galli (setting [3]), the EC50 is 45.7 µg/mL (≈ 146 µM). In addition, the inhibition at 100 µM in data set [1] turned out to be 10.3%. In the data set with Arabidopsis thaliana, the EC50 is over 100 µg/mL and the pest or weed control at 100 µg/mL was determined as 43.2%. The EC50 with Brassica napus L. (setting [4]) worked out at 39.2 µg/mL (≈ 125 µM). Also, the EC50 in the data set with Brassica napus L. (setting [5]) came out at 50.8 µg/mL (≈ 162 µM).

For `CCCc1n[nH]c(O)c1CC(P(=O)(O)O)P(=O)(O)O` [Compound 12c], the melting point is over 250 °C. Also, the EC50 in the data set on Echinochloa crus-galli (setting [2]) came to 68.3 µg/mL (≈ 217 µM). The EC50 in the data set with Echinochloa crus-galli (setting [3]) is 36.4 µg/mL (≈ 116 µM). Further, the inhibition at 100 µM in data set [1] was 32.3%. For the same compound, in the data set on Arabidopsis thaliana, the EC50 is over 100 µg/mL and the pest or weed control at 100 µg/mL came out at 49.7%. For the same compound, the EC50 in the data set on Brassica napus L. (setting [4]) came to 55.1 µg/mL (≈ 175 µM). The EC50 in the data set with Brassica napus L. (setting [5]) was determined as 33.1 µg/mL (≈ 105 µM).

Compound `Cc1n[nH]c(O)c1CCP(=O)(O)O` [Compound 5a] had a melting point of 220 to 221 °C. Moreover, the EC50 in the data set with Echinochloa crus-galli (read-out: EC50 EC Root) was 54.1 µg/mL (≈ 262 µM). The EC50 with Echinochloa crus-galli (read-out: EC50 EC Stalk) stood at 68.5 µg/mL (≈ 332 µM). In addition, the inhibition at 100 µM in data set [1] was 11.9%. In addition, in the data set on Arabidopsis thaliana, the EC50 was over 100 µg/mL and the pest or weed control at 100 µg/mL is 24%. Also, the EC50 in the data set with Brassica napus L. (read-out: EC50 BN Root) was over 100 µg/mL. In addition, the EC50 in the data set with Brassica napus L. (read-out: EC50 BN Stalk) came out at 32.8 µg/mL (≈ 159 µM).

As for `CC(C)c1n[nH]c(O)c1CCP(=O)(O)O` [Compound 5d], the melting point was 210 to 211 °C. For the same compound, the EC50 with Echinochloa crus-galli (setting [2]) amounted to 32.1 µg/mL (≈ 137 µM). Also, in the data set on Echinochloa crus-galli (setting [3]), the EC50 is over 100 µg/mL. Also, in data set [1], the inhibition at 100 µM is 17.7%. In the data set on Arabidopsis thaliana, the EC50 is over 100 µg/mL and the pest or weed control at 100 µg/mL came to 48.3%. For the same compound, the 50% effective concentration (EC50) in the data set with Brassica napus L. (setting [4]) is over 100 µg/mL. Besides, the concentration for a half-maximal effect (EC50) in the data set on Brassica napus L. (setting [5]) came to 96.9 µg/mL (≈ 414 µM).

As for `CCCc1onc(O)c1CC(P(=O)(O)O)P(=O)(O)O` [Compound 13c], the EC50 in the data set on Echinochloa crus-galli (setting [2]) turned out to be 43.9 µg/mL (≈ 139 µM); in the data set on Echinochloa crus-galli (setting [3]) it was 45.8 µg/mL (≈ 145 µM); in the data set with Arabidopsis thaliana, 48.4 ± 5.3 µg/mL (≈ 154 µM); in the data set on Brassica napus L. (setting [4]), 27.7 µg/mL (≈ 87.9 µM); in the data set with Brassica napus L. (setting [5]), 46.9 µg/mL (≈ 149 µM). In addition, in the data set on Echinochloa crus-galli, the “Relative activity ratio (EC root)” value came to 0.9 fold. Further, the “Relative activity ratio (EC stalk)” value with Echinochloa crus-galli was found to be 0.8 fold. The inhibition at 100 µM in data set [1] was determined as 28.4%. Further, in the data set on Arabidopsis thaliana, the pest or weed control at 100 µg/mL worked out at 100%. For the same compound, the “Relative activity ratio (BN root)” value in the data set with Brassica napus L. was 1.3 fold. The “Relative activity ratio (BN stalk)” value in the data set with Brassica napus L. came to 0.7 fold.

In turn, `CCc1noc(CC)c1CCP(=O)(O)O` [Compound 6f] came in with a melting point of over 250 °C. In addition, the EC50 with Echinochloa crus-galli (setting [2]) is over 100 µg/mL. The 50% effective concentration (EC50) in the data set with Echinochloa crus-galli (setting [3]) was determined as 41.7 µg/mL (≈ 179 µM). In data set [1], the inhibition at 100 µM was 11.7%. Moreover, in the data set with Arabidopsis thaliana, the EC50 is over 100 µg/mL and the pest or weed control at 100 µg/mL came out at 13.4%. The EC50 with Brassica napus L. (setting [4]) was over 100 µg/mL. In addition, the EC50 in the data set on Brassica napus L. (setting [5]) is over 100 µg/mL.

The compound `Cc1n[nH]c(O)c1CC(P(=O)(O)O)P(=O)(O)O` [Compound 12a] registered a melting point of over 250 °C. Moreover, the EC50 with Echinochloa crus-galli (setting [2]) is over 100 µg/mL. The EC50 in the data set with Echinochloa crus-galli (setting [3]) is 47.7 µg/mL (≈ 167 µM). For the same compound, the inhibition at 100 µM in data set [1] was 13.7%. Besides, in the data set with Arabidopsis thaliana, the EC50 was over 100 µg/mL and the pest or weed control at 100 µg/mL was 47.2%. In the data set with Brassica napus L. (setting [4]), the EC50 amounted to 51.3 µg/mL (≈ 179 µM). Moreover, the EC50 in the data set with Brassica napus L. (setting [5]) was found to be 87.1 µg/mL (≈ 304 µM).

Regarding `CC(C)c1onc(O)c1CCP(=O)(O)O` [Compound 6d], the EC50 was 40.1 µg/mL (≈ 171 µM) in the data set with Echinochloa crus-galli (setting [2]); 25.7 µg/mL (≈ 109 µM) in the data set with Echinochloa crus-galli (setting [3]); 45.7 ± 4.8 µg/mL (≈ 194 µM) in the data set on Arabidopsis thaliana; 67.5 µg/mL (≈ 287 µM) in the data set on Brassica napus L. (setting [4]); 38.2 µg/mL (≈ 162 µM) in the data set with Brassica napus L. (setting [5]). The “Relative activity ratio (EC root)” value in the data set on Echinochloa crus-galli was found to be 1.0 fold. Further, the “Relative activity ratio (EC stalk)” value with Echinochloa crus-galli is on record as 1.5 fold. Moreover, in data set [1], the inhibition at 100 µM turned out to be 17.3%. In the data set on Arabidopsis thaliana, the pest or weed control at 100 µg/mL was found to be 100%. The “Relative activity ratio (BN root)” value in the data set on Brassica napus L. came out at 0.5 fold. The “Relative activity ratio (BN stalk)” value with Brassica napus L. was found to be 0.9 fold.

As to `CCc1onc(O)c1CCP(=O)(O)O` [Compound 6b], the EC50 was 24.7 µg/mL (≈ 112 µM) in the data set with Echinochloa crus-galli (read-out: EC50 EC Root); 36.1 µg/mL (≈ 163 µM) in the data set with Echinochloa crus-galli (read-out: EC50 EC Stalk); over 100 µg/mL with Arabidopsis thaliana; 70.1 µg/mL (≈ 317 µM) in the data set with Brassica napus L. (read-out: EC50 BN Root); 65.8 µg/mL (≈ 298 µM) in the data set on Brassica napus L. (read-out: EC50 BN Stalk). In addition, the inhibition at 100 µM in data set [1] turned out to be 19.5%. Further, the pest or weed control at 100 µg/mL with Arabidopsis thaliana stood at 46.5%.

In the case of `CCCc1onc(O)c1CCP(=O)(O)O` [Compound 6c], the EC50 in the data set with Echinochloa crus-galli (setting [2]) was 65.4 µg/mL (≈ 278 µM); in the data set on Echinochloa crus-galli (setting [3]), 41.1 µg/mL (≈ 175 µM); in the data set on Arabidopsis thaliana, over 100 µg/mL; in the data set on Brassica napus L. (setting [4]), 99.7 µg/mL (≈ 424 µM); in the data set on Brassica napus L. (setting [5]), 33.7 µg/mL (≈ 143 µM). Also, the inhibition at 100 µM in data set [1] was 7.5%. In the data set with Arabidopsis thaliana, the pest or weed control at 100 µg/mL was determined as 42%.
